Results taken from US6121323A, “Bishydroxyureas” (3M Innovative Properties Company, priority 1997, dated 2000).
pIC50: −log10 of the molar value.

How the values were obtained:
[1] = test system: Leukotriene B4 production in whole human blood; assay: In vitro human whole blood Leukotriene B4 inhibition; format: cell-based; conditions: A23187 stimulated, read-out: IC50 (concentration producing 50% inhibition of LTB4 production)
Protocol: IN VITRO HUMAN WHOLE BLOOD LEUKOTRIENE B4 INHIBITION
The test method described below measures the ability of compounds to inhibit the production of Leukotriene B4 in whole human blood.
Whole human blood is collected by venipuncture into a 60 cc syringe containing 100 units of heparin.
compounds are disolved in dimethyl sulfoxide. Compounds are tested at concentrations of 100, 33, 11, 3.7, 1.2 and 0.41 μM. Each concentration is tested in duplicate.
Aliquots (1 μL) of compound solution are added to 1 mL polyethylene tubes followed by the addition of 500 μL portion of heparinized blood. The tubes are mixed thoroughly then allowed to preincubate at ambient temperature for 15 minutes. A 25 μL portion of 1 mM Calcium Ionophore A23187 in dimethyl sulfoxide/Tris buffer is added to the tubes. The tubes are mixed thoroughly then incubated at 37° C. for 30 minutes.
The tubes are centrifuged at 2000 rpm for 10 minutes. 100 μL portions of plasma are transferred to 1 mL polyethylene tubes containing 400 μL portions of methanol. The tubes are vortexed then frozen at -20° C. overnight.
The tubes are centrifuged for 10 minutes then 100 μL portions of methanol supernatant are transferred to a 96 well microtiter plate. 10 μL portions are transferred from this plate to a 96 well assay plate. Methanol dilutions of LTB4 standard curve are added to the assay plate. 10 μL portions of blank methanol/plasma supernatant are added to each standard curve well. The assay plate is vacuum dried at ambient temperature. The radioimmunoassay buffer is added, the plate is bath-sonicated for 5 minutes then assayed according to the manufacturer's instructions (Advanced Magnetics; Cambridge, Mass.). Inhibition of LTB4 production is calculated as the ratio of the amount of LTB4 formed in the presence (LTB4 +cpd) and absence (LTB4 no cpd) of compound according the equation below. [formula] IC50 values (concentration of compound producing a 50% inhibition of LTB4 production) are calculated by linear regression analysis of percentage inhibition versus log compound concentration plots.

[2] = target: T1, 5-lipoxygenase (Homo sapiens, UniProt P09917); assay: 5-Lipoxygenase inhibition in human leukocytes (LTC4 by radioimmunoassay); format: cell-based; conditions: A23187 stimulated, LTC4 readout, read-out: IC50 (concentration producing 50% leukotriene biosynthesis inhibition)
T1 construct: endogenous in cells; host or cells: leukocytes from whole human blood (EDTA, dextran sedimentation, hypotonic lysis)
T1 sequence (P09917 1-674): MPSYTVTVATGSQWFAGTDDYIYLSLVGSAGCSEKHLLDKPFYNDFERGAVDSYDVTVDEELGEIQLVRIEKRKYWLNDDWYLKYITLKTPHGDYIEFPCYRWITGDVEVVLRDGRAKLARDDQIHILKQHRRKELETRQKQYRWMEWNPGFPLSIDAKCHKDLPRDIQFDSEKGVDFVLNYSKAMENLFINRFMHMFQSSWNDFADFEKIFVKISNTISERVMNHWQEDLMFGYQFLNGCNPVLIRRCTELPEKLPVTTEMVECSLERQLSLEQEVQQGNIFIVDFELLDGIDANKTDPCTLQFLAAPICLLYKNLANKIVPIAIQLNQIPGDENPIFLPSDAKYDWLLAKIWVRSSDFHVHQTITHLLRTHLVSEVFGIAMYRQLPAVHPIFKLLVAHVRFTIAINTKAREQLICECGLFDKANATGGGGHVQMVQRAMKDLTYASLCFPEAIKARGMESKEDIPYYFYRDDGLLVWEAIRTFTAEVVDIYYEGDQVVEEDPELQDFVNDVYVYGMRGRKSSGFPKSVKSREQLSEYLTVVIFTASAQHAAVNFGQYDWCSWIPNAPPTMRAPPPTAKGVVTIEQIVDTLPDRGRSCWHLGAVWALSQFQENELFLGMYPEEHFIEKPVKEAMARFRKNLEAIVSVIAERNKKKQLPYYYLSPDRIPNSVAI
Protocol: 5-LIPOXYGENASE INHIBITION IN HUMAN LEUKOCYTES
The test method described below measures the ability of compounds of the invention to inhibit 5-lipoxygenase activity in human leukocytes.
Whole human blood is collected by venipuncture into EDTA (1.4 mL of 0.25M per 60 mL of whole blood). The red blood cells are sedimented with a 6% dextran/0.9% sodium chloride solution at a ratio of 25 mL whole blood to 15 mL dextran solution. The blood/dextran combination is mixed by inversion and the red blood cells are allowed to settle out for 45 minutes at ambient temperature. The plasma/dextran supernatant is removed then centrifuged at ambient temperature at 3000 rpm for 10 minutes. The plasma/dextran supernatant is removed and the cells are resuspended in 10 mL of the plasma/dextran solution. The cell suspension is combined with 20 mL of water, mixed for 1.5 minutes then immediately combined with 10 mL of 3.6% sodium chloride, mixed and centrifuged at ambient temperature at 3000 rpm for 10 minutes. The pellet is washed with 40 mL of Tris buffer (5.55 mM dextrose, 15.36 mM Tris base, 136.9 mM sodium chloride with pH 7.3-7.4) then centrifuged at 3000 rpm for 10 minutes. The pellet is then resuspended into Tris buffer containing 1 mM calcium chloride to provide approximately 1.0×10^7 cells/mL.
Compounds are dissolved in dimethyl sulfoxide. Compounds are tested at concentrations of 100, 33, 11, 3.7, 1.2 and 0.41 μM. Each concentration is tested in duplicate.
A 15 μL portion of Tris buffer containing 1 mM calcium chloride is added to each well of a 96 well microtiter plate. A 1 μL portion of drug solution or vehicle (dimethyl sulfoxide) is added to each well followed by the addition of a 75 μL portion of the cell suspension. The plates are gently mixed then allowed to stand at ambient temperature for 10 minutes. A 10 μL portion of 30 μM A23187 Calcium Ionophore (prepared by dissolving the ionophore in DMSO and then diluting 1:80 into the Tris buffer) is added to each well except the wells that contain the blanks. The blank wells measure the level of LTC4 production in the absence of A23187. The plates are gently mixed then incubated at 37° C. for 10 minutes.
Following incubation the plates are centrifuged at 2000 rpm for 1.5 minutes and the supernatant is removed as quickly as possible to stop the reaction. The supernatants are frozen at -20° C. until they are assayed.
The supernatants are assayed for the presence of Leukotriene C4 by radioimmunoassay which is performed according to the manufacturer's instructions (Advanced Magnetics; Cambridge, Mass.). Inhibition of leukotriene biosynthesis is calculated as the ratio of the amount of LTC4 formed in the presence (LTC4 +cpd) and absence (LTC4 no cpd) of compound according to the following equation. [formula] IC50 values (concentrations of compound producing 50% leukotriene biosynthesis inhibition) are calculated by linear regression analysis of percentage inhibition versus log compound concentration plots.

**Q.** How did the pIC50 [1] turn out when `CN(O)C(=O)Nc1cccc2c(NC(=O)N(C)O)cccc12` [Example 8, 1,1'-(1,5-Naphthalene)bis(3-hydroxy-3-methylurea)] was run?
**A.** 6.15

**Q.** What about the pIC50 [2] of the same molecule?
**A.** 5.25

**Q.** What does the source list for `CN(O)C(=O)Nc1cccc(NC(=O)N(C)O)c1` [Example 7, 1,1'-(m-Phenylene)bis(3-hydroxy-3-methylurea)]?
**A.** pIC50 [1]: 6.26; pIC50 [2]: 5.23

**Q.** With `CCc1cc(Cc2cc(CC)c(NC(=O)N(C)O)c(CC)c2)cc(CC)c1NC(=O)N(C)O` [Example 4, 4,4'-Methylenebis(1-hydroxy-1-methyl-3-(2,6-diethylphenyl)urea)] as the molecule, how does the pIC50 [1] read?
**A.** 5.09

**Q.** What about the pIC50 [2] of the same molecule?
**A.** 5.37

**Q.** What does the source list for `CN(O)C(=O)Nc1ccc(C(c2ccc(NC(=O)N(C)O)cc2)(C(F)(F)F)C(F)(F)F)cc1` [Example 5, 4,4'-(2,2-Hexafluoropropane)bis(1-hydroxy-1-methyl-3-phenylurea)]?
**A.** pIC50 [1]: 6.15; pIC50 [2]: 7.62

**Q.** How did the pIC50 [1] turn out when `CN(O)C(=O)N[C@H]1CC[C@H](NC(=O)N(C)O)CC1` [Example 9, trans-1,4-Cyclohexanebis(3-hydroxy-3-methylurea)] was run?
**A.** 4.76

**Q.** And the pIC50 [2]?
**A.** < 5.00

**Q.** Which results are given for `O=C(NCCCCCCNC(=O)N(O)Cc1ccccc1)N(O)Cc1ccccc1` [Example 10, 1,1'-Hexamethylenebis(3-hydroxy-3-benzylurea)]?
**A.** pIC50 [1]: 5.70; pIC50 [2]: 7.00

**Q.** With `COc1cc(-c2ccc(NC(=O)N(C)O)c(OC)c2)ccc1NC(=O)N(C)O` [Example 11] as the molecule, how does the pIC50 [1] read?
**A.** 6.46

**Q.** And the pIC50 [2]?
**A.** 7.00

**Q.** With `CN(O)C(=O)Nc1ccc(Oc2ccc(NC(=O)N(C)O)cc2)cc1` [Example 6, 4,4'-Oxybis(1-hydroxy-1-methyl-3-phenylurea)] as the molecule, how does the pIC50 [1] read?
**A.** 6.30

**Q.** And the pIC50 [2]?
**A.** 6.67
